The structures appear in SMILES notation.

These results are taken from ChEMBL document CHEMBL1127891, “Benzopyran potassium channel activators related to cromakalim - heterocyclic amide replacements at position 4” (1994).

What all share (format): functional
For test [1], the system named is Rattus norvegicus. Kind of test: Tested for antihypertensive activity expressed as max fall in BP in spontaneously hypertensive rats (SHR), at the dose of 0.3 mg/kg.
Test [2] relates to Rattus norvegicus. Kind of test: Tested for antihypertensive activity expressed as max fall in BP in spontaneously hypertensive rats (SHR), at the dose of 0.1 mg/kg.
Test [3] has as its system Rattus norvegicus. Kind of test: Tested for antihypertensive activity expressed as max fall in BP in spontaneously hypertensive rats (SHR), at the dose of 1 mg/kg.
Test [4] concerns Rattus norvegicus. Kind of test: Tested for antihypertensive activity expressed as max fall in BP in spontaneously hypertensive rats (SHR), at the dose of 10.0 mg/kg.
Test [5] deals with Rattus norvegicus. The test can be described thus: Tested for antihypertensive activity expressed as max fall in BP in spontaneously hypertensive rats (SHR), at the dose of 3.0 mg/kg.

On to `Cn1nc(N)nc1N[C@@H]1c2cc(C#N)ccc2OC(C)(C)[C@H]1O`, for which the “Max fall in blood pressure” value was 56 with Rattus norvegicus [1] and 30 with Rattus norvegicus [2].
For `Cn1ncnc1N[C@@H]1c2cc(C#N)ccc2OC(C)(C)[C@H]1O`, the “Max fall in blood pressure” value in the test with Rattus norvegicus [1] amounted to 22; in the test on Rattus norvegicus [3], 35.
`Cn1nc(N[C@@H]2c3cc(C#N)ccc3OC(C)(C)[C@H]2O)nc1N`: the “Max fall in blood pressure” value with Rattus norvegicus [4] is reported as 33.
For `Cc1nc(N[C@@H]2c3cc(C#N)ccc3OC(C)(C)[C@H]2O)n(C)n1`, the figures for the “Max fall in blood pressure” value with Rattus norvegicus [5] and in the test on Rattus norvegicus [3] were 37 and 22, respectively.
As for `CC1(C)Oc2ccc(C#N)cc2[C@@H](Nc2n[s+]([O-])nc2N)[C@@H]1O` (some centres not stated), in the test with Rattus norvegicus [5], the “Max fall in blood pressure” value is 20.
On to `CC1(C)Oc2ccc(C#N)cc2[C@@H](Nc2n[nH]c(N)n2)[C@@H]1O`, for which the “Max fall in blood pressure” value with Rattus norvegicus [5] came out at 19.
Take `C/N=C(\NC#N)N[C@@H]1c2cc(C#N)ccc2OC(C)(C)[C@H]1O`: the “Max fall in blood pressure” value in the test with Rattus norvegicus [1] is reported as 16; in the test on Rattus norvegicus [3], 41.
For `CC1(C)Oc2ccc(C#N)cc2[C@@H](Nc2nc(N)no2)[C@@H]1O`, the “Max fall in blood pressure” value came out at 32 with Rattus norvegicus [5] and 16 in the test with Rattus norvegicus [3].
Take `Cc1noc(N[C@@H]2c3cc(C#N)ccc3OC(C)(C)[C@H]2O)n1`: in the test with Rattus norvegicus [5], the “Max fall in blood pressure” value is 31.
In the case of `CC1(C)Oc2ccc(C#N)cc2[C@@H](N2CCCC2=O)[C@@H]1O` [CROMAKALIM], the “Max fall in blood pressure” value with Rattus norvegicus [1] was 39; in the test on Rattus norvegicus [2], 13; in the test on Rattus norvegicus [3] it was 47.
